Values of other authors, collected in patent publication US9005185B2, “Nanochanneled device and related methods” (The Board of Regents of the University of Texas System, priority 2008, dated 2015).

Target: T1, Aromatase (Homo sapiens, UniProt P11511)
T1 sequence (P11511 1-503): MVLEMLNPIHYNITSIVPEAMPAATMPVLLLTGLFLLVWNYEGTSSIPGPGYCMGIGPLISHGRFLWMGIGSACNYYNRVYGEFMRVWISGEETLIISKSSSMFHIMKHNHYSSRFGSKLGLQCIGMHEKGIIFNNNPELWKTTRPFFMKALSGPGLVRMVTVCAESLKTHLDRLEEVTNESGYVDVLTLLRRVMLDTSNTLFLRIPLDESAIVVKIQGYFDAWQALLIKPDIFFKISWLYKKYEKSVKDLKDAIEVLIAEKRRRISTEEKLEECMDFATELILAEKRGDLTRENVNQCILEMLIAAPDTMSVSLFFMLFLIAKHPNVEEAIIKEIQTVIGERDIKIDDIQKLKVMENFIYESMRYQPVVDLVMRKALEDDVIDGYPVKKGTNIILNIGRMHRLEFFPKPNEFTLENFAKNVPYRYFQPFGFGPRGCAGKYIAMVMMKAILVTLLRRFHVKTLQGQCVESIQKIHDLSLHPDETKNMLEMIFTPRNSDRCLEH

inhibits estrogen biosynthesis: approximately 99%
Compound: N#Cc1ccc(C(c2ccc(C#N)cc2)n2cncn2)cc1 [letrozole]
